Assay results: DBAASP
Values after ≈ are worked out from the molar mass of the structure shown. Values joined by “and” are separate entries in the source; they are usually repeats but may differ in a detail not shown here. Identical values can stand only once. Each block holds one compound with its values, some of them ahead of it.

Legend:
Assay in all cases: ≥ marks a high value that may be exact or a test limit, other limits are often not marked, values filed in µg/mL are converted to µM
Candida albicans CAN105 = test system: Candida albicans CAN105
Enterococcus faecalis = test system: Enterococcus faecalis
Escherichia coli UB1005 = test system: Escherichia coli UB1005
[1] = test system: Pseudomonas aeruginosa H187
[2] = test system: Staphylococcus aureus K147
[3] = test system: Staphylococcus aureus SAP 0017
[4] = test system: Staphylococcus epidermidis
[5] = test system: Acinetobacter baumannii ATCC 19606
Candida albicans = test system: Candida albicans
[6] = test system: Corynebacterium jeikeium ATCC BAA-949
[7] = test system: Escherichia coli ATCC 25922
[8] = test system: Pseudomonas aeruginosa AA43
[9] = test system: Pseudomonas aeruginosa ATCC 19660
[10] = test system: Pseudomonas aeruginosa ATCC 27853
[11] = test system: Pseudomonas aeruginosa ME
[12] = test system: Pseudomonas aeruginosa PAO1
[13] = test system: Pseudomonas aeruginosa R1
Pseudomonas aeruginosa = test system: Pseudomonas aeruginosa
[14] = test system: Staphylococcus aureus ATCC 25923
Staphylococcus aureus = test system: Staphylococcus aureus
[15] = test system: Staphylococcus epidermidis ATCC 12228
Staphylococcus hominis = test system: Staphylococcus hominis
[16] = test system: Bacillus subtilis ATCC 6633
[17] = test system: Salmonella enterica subsp. enterica serovar Enteritidis BNCC 103134

MIC (Candida albicans CAN105): 26.1 µM (≈ 64 µg/mL)
MIC (Enterococcus faecalis): 26.1 µM (≈ 64 µg/mL)
MIC (Escherichia coli UB1005): 5.3 µM (≈ 13 µg/mL)
MIC [1]: 13 µM (≈ 32 µg/mL)
MIC [2]: 26.1 µM (≈ 64 µg/mL)
MIC [3]: 26.1 µM (≈ 64 µg/mL)
MIC [4]: 17.5 µM (≈ 43 µg/mL)
SMILES: CC[C@H](C)[C@H](NC(=O)CNC(=O)[C@@H](NC(=O)[C@H](CCCCN)NC(=O)[C@H](CCCCN)NC(=O)[C@H](Cc1ccccc1)NC(=O)[C@H](CC(C)C)NC(=O)[C@H](CCCCN)NC(=O)[C@H](Cc1c[nH]c2ccccc12)NC(=O)[C@@H](N)CCCCN)[C@@H](C)CC)C(=O)NCC(=O)N[C@@H](C)C(=O)N[C@H](C(=O)N[C@@H](CC(C)C)C(=O)N[C@H](C(=O)N[C@H](C(=O)NCC(=O)N[C@@H](CC(C)C)C(=O)N1CCC[C@H]1C(=O)N[C@@H](C)C(=O)N[C@@H](CC(C)C)C(=O)N[C@H](C(=O)N[C@@H](CO)C(=O)O)[C@@H](C)CC)[C@@H](C)O)[C@@H](C)O)C(C)C [KWKLFKKIGIGAVLTTGLPALIS]

MIC [5]: 1.56 µM (≈ 3.41 µg/mL)
MIC (Candida albicans): 2.83 µM (≈ 6.18 µg/mL)
MIC [6]: 0.125 µM (≈ 0.273 µg/mL)
MIC [7]: 1.56 µM (≈ 3.41 µg/mL)
MIC [8]: 4.03 µM (≈ 8.8 µg/mL)
MIC [9]: 16 µM (≈ 35 µg/mL)
MIC [10]: 4 µM and 3.12 µM
MIC [11]: 8 µM (≈ 17.5 µg/mL)
MIC [12]: 4 µM and > 2.01 µM
MIC [13]: 2 µM (≈ 4.37 µg/mL)
MIC (Pseudomonas aeruginosa): 4 µM (≈ 8.74 µg/mL)
MIC [14]: > 100 µM
MIC (Staphylococcus aureus): 64 µM and 100 µM
MIC [15]: 3.12 µM (≈ 6.82 µg/mL)
MIC [4]: 8 µM (≈ 17.5 µg/mL)
MIC (Staphylococcus hominis): 1 µM (≈ 2.18 µg/mL)
SMILES: CC[C@H](C)[C@H](NC(=O)CN)C(=O)N[C@@H](Cc1ccccc1)C(=O)N[C@@H](CO)C(=O)N[C@@H](CCCCN)C(=O)N[C@@H](CC(C)C)C(=O)N[C@@H](C)C(=O)NCC(=O)N[C@@H](CCCCN)C(=O)N[C@@H](CCCCN)C(=O)N[C@H](C(=O)N[C@@H](CCCCN)C(=O)N[C@@H](CC(N)=O)C(=O)N[C@@H](CC(C)C)C(=O)N[C@@H](CC(C)C)C(=O)N[C@H](C(=O)N[C@@H](CO)C(=O)NCC(=O)N[C@@H](CC(C)C)C(=O)N[C@@H](CCCCN)C(=O)NCC(N)=O)[C@@H](C)CC)[C@@H](C)CC [GIFSKLAGKKIKNLLISGLKG]

SMILES: NC(=O)C[C@H](NC(=O)[C@H](Cc1cnc[nH]1)NC(=O)[C@H](CC(N)=O)NC(=O)[C@@H](N)Cc1ccc(O)cc1)C(=O)N[C@@H](Cc1ccccc1)C(=O)O [YNHNF]
MIC [16]: ≥ 300 µM
MIC [7]: 150 µM (≈ 104 µg/mL)
MIC [17]: ≥ 300 µM
MIC [14]: 300 µM (≈ 208 µg/mL)
